The values that follow come from ChEMBL document CHEMBL1151486, “Decomposition of FK 409, a new vasodilator: Identification of nitric oxide as a metabolite” (Bioorg Med Chem Lett, 1995).

For the test, the species on record is Oryctolagus cuniculus. As to the kind of experiment: Evaluation of vasodilatory activity in Isolated rabbit aorta strips. The class given is functional.

pIC50: −log10 of the molar value.

The term pIC50 denotes −log10 of the IC50, conventionally taken in molar units. Read a high pIC50 as a low IC50. Molecule `CC/C(=C\C(=N/O)C(N)=O)C(C)[N+](=O)[O-]` (configuration not stated) gave a pIC50 of 6.82.

Take `CC/C(=C\C(=O)C(N)=O)C(C)[N+](=O)[O-]` (configuration not stated): the pIC50 was 5.15.
